Values of other authors as cited in US20190320698A1, “HYDROLYZED PECTIN AND USEOF THE SAME” (International Flavors & Fragrances Inc., priority 2018, published 2019).

Details: approximate values

Water Solubility (g/L, approx.) | Structure (SMILES)
Insoluble | CSC [dimethyl sulfide]
~90 g/L | CCOC(C)=O [ethyl acetate]
~14 g/L | CCOC(=O)CC [ethyl propionate]

Second part, the molecule before the results:

Structure (SMILES) | Water Solubility (g/L, approx.)
CCCC(=O)OCC [ethyl butyrate] | ~6 g/L
CCCC(=O)OC [methyl butyrate] | ~15 g/L
